Data set [1] relates to Cryopreserved human hepatocytes. Here is the method:
Cryopreserved human hepatocytes are cultured with 3T3-J2 fibroblasts under serum free conditions. Following overnight incubation in high oxygen tension (95% O2, 5% CO2) the cells are exposed to one of the following drugs: antipyrine, buspirone, metoprolol, sildenafil, and timolol.

Data set [2] shares this test system. Briefly: Long term accumulation of 4-OH midazolam in culture media of oxygenated hepatocyte co-cultures. The data set is classed as in vitro ADME. To be noted: in the presence and absence of rifampicin; FIG. 5B.

Like-named read-outs stand apart in the source and are kept apart here.

Take `Cc1cc(=O)n(-c2ccccc2)n1C` [antipyrine]: the clearance of drugs result in data set [1] (cryopreserved human hepatocytes with 3T3-J2 fibroblasts, serum free, overnight 95% O2, 5% CO2, FIG. 5A) is listed as “slow clearing”.
In the case of `Cc1ncc2n1-c1ccc(Cl)cc1C(c1ccccc1F)=NC2O` (stereo not shown) [4-OH midazolam], in data set [2], the “accumulation of 4-OH midazolam in the culture media” value is “can be detected over 30 hours of culture”.
`CCCc1nn(C)c2c(=O)[nH]c(-c3cc(S(=O)(=O)N4CCN(C)CC4)ccc3OCC)nc12` [sildenofil, sildenafil]: in data set [1] (human), the clearance of drugs entry is reported as “slow clearing”.
With `CC(C)(C)NC[C@H](O)COc1nsnc1N1CCOCC1` [timolol], the clearance of drugs entry in data set [1] (human) is “slow clearing”.

Source of the values: patent US9243221B2, “Compositions and methods of functionally enhanced in vitro cell culture system” (HUREL CORPORATION, priority 2008, dated 2016).
